Measured values as given in PubChem BioAssay AID192 (DTP/NCI, 2004).
Values joined by “and” are separate entries in the source; they are usually repeats but may differ in a detail not shown here. Equal values may be shown once. Toxic doses and inconclusive results are not listed.

System: BDF1 mice, B16 melanoma ip, median survival T/C
Experiment: NCI In Vivo Anticancer Drug Screen. Data for tumor model B16 Melanoma (intraperitoneal) in B6D2F1 (BDF1) mice
Settings: endpoint: median survival time, higher = longer survival
Method in brief: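 Transplantable tumor model; survival or tumor size measured; reported as T/C, treated over vehicle control.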

[1] = dose: 6.25 mg/kg/injection, schedule: Q01DX009 (ip), vehicle: Klucel (hydroxypropylcellulose) (HPC)
[2] = dose: 6.25 mg/kg/injection, schedule: Q01DX009 (ip), vehicle: saline with Tween-80
[3] = dose: 12.5 mg/kg/injection, schedule: Q01DX009 (ip), vehicle: Klucel (hydroxypropylcellulose) (HPC)
[4] = dose: 12.5 mg/kg/injection, schedule: Q01DX009 (ip), vehicle: saline with Tween-80
[5] = dose: 25.0 mg/kg/injection, schedule: Q01DX009 (ip), vehicle: Klucel (hydroxypropylcellulose) (HPC)
[6] = dose: 25.0 mg/kg/injection, schedule: Q01DX009 (ip), vehicle: saline with Tween-80
[7] = dose: 50.0 mg/kg/injection, schedule: Q01DX009 (ip), vehicle: Klucel (hydroxypropylcellulose) (HPC)
[8] = dose: 100.0 mg/kg/injection, schedule: Q01DX009 (ip), vehicle: saline
[9] = dose: 200.0 mg/kg/injection, schedule: Q01DX009 (ip), vehicle: saline
[10] = dose: 400.0 mg/kg/injection, schedule: Q01DX009 (ip), vehicle: saline
[11] = dose: 100.0 mg/kg/injection, schedule: Q01DX009 (ip), vehicle: Klucel (hydroxypropylcellulose) (HPC)
[12] = dose: 200.0 mg/kg/injection, schedule: Q01DX009 (ip), vehicle: Klucel (hydroxypropylcellulose) (HPC)
[13] = dose: 12.5 mg/kg/injection, schedule: Q01DX009 (ip), vehicle: saline
[14] = dose: 50.0 mg/kg/injection, schedule: Q01DX009 (ip), vehicle: saline

Compound: Nc1ccc(-c2ccc(N)c([N+](=O)[O-])c2)cc1[N+](=O)[O-]
- T/C (dose: 100.0 mg/kg/injection, schedule: Q01DX009 (ip), vehicle: saline with Tween-80): 100 % of control
- T/C (dose: 200.0 mg/kg/injection, schedule: Q01DX009 (ip), vehicle: saline with Tween-80): 97 % of control
- T/C (dose: 400.0 mg/kg/injection, schedule: Q01DX009 (ip), vehicle: saline with Tween-80): 105 % of control

Compound: CCCCC/C(C)=N\Nc1ccccn1
- T/C (dose: 12.5 mg/kg/injection, schedule: Q01DX009 (ip), vehicle: saline sonified): 106 % of control
- T/C (dose: 25.0 mg/kg/injection, schedule: Q01DX009 (ip), vehicle: saline sonified): 100 % of control
- T/C (dose: 50.0 mg/kg/injection, schedule: Q01DX009 (ip), vehicle: saline sonified): 102 % of control
- T/C (dose: 100.0 mg/kg/injection, schedule: Q01DX009 (ip), vehicle: saline sonified): 100 % of control

Compound: CCCN(C)N=Nc1ccccc1C(=O)O
- T/C (dose: 1.56 mg/kg/injection, schedule: Q01DX009 (ip), vehicle: saline with Tween-80): 100 % of control
- T/C (dose: 3.12 mg/kg/injection, schedule: Q01DX009 (ip), vehicle: saline with Tween-80): 103 % of control
- T/C (dose: 3.13 mg/kg/injection, schedule: Q01DX009 (ip), vehicle: saline with Tween-80): 111 % of control
- T/C [1]: 116 % of control
- T/C [2]: 101 % of control and 102 % of control
- T/C [3]: 110 % of control
- T/C [4]: 98 % of control and 102 % of control and 105 % of control
- T/C [5]: 104 % of control
- T/C [6]: 102 % of control and 107 % of control and 115 % of control
- T/C [7]: 107 % of control
- T/C (dose: 50.0 mg/kg/injection, schedule: Q01DX009 (ip), vehicle: saline with Tween-80): 100 % of control

Compound: SCc1ccccn1
- T/C [8]: 112 % of control
- T/C [9]: 115 % of control
- T/C [10]: 105 % of control

Compound: CC1=C(CCC(=O)O)c2cc3nc(cc4[nH]c(cc4C)cc4[nH]c(cc1n2)cc4C)C(C)(C)C3CCC(=O)O (stereo not given)
- T/C (dose: 3.0 mg/kg/injection, schedule: Q01DX009 (ip), vehicle: Klucel (hydroxypropylcellulose) (HPC)): 109 % of control
- T/C (dose: 6.0 mg/kg/injection, schedule: Q01DX009 (ip), vehicle: Klucel (hydroxypropylcellulose) (HPC)): 101 % of control
- T/C (dose: 12.0 mg/kg/injection, schedule: Q01DX009 (ip), vehicle: Klucel (hydroxypropylcellulose) (HPC)): 90 % of control
- T/C (dose: 24.0 mg/kg/injection, schedule: Q01DX009 (ip), vehicle: Klucel (hydroxypropylcellulose) (HPC)): 104 % of control

Compound: COc1cccc2c1C(=O)c1c(O)c3c(c(O)c1C2=O)C[C@@](O)(/C(CO)=N/NC(=O)c1ccc(Cl)c(Cl)c1)C[C@@H]3OC1CC(N)C(O)C(C)O1 (stereo not given in full)
- T/C (dose: 2.5 mg/kg/injection, schedule: Q01DX001 (ip), vehicle: other): 119 % of control
- T/C (dose: 10.0 mg/kg/injection, schedule: Q01DX001 (ip), vehicle: water): 111 % of control and 252 % of control
- T/C (dose: 20.0 mg/kg/injection, schedule: Q01DX001 (ip), vehicle: other): 247 % of control
- T/C (dose: 20.0 mg/kg/injection, schedule: Q01DX001 (ip), vehicle: water): 102 % of control
- T/C (dose: 40.0 mg/kg/injection, schedule: Q01DX001 (ip), vehicle: water): 250 % of control
- T/C (dose: 80.0 mg/kg/injection, schedule: Q01DX001 (ip), vehicle: water): 105 % of control

Compound: C=CCc1ccc(C)c(C)c1O
- T/C (dose: 100.0 mg/kg/injection, schedule: Q04DX003 (sc), vehicle: olive oil, sesame oil, peanut oil): 91 % of control

Compound: CCCCCOc1ccc(C(=O)CC(=O)OCC)cc1
- T/C [11]: 93 % of control
- T/C [12]: 106 % of control
- T/C (dose: 400.0 mg/kg/injection, schedule: Q01DX009 (ip), vehicle: Klucel (hydroxypropylcellulose) (HPC)): 93 % of control

Compound: CCOc1ccccc1NC(=O)c1cc2ccccc2cc1O
- T/C [8]: 115 % of control
- T/C [9]: 118 % of control
- T/C [10]: 121 % of control

Compound: CCNC(Cc1ccccc1)C1CCCO1 (stereo not given)
- T/C (dose: 6.25 mg/kg/injection, schedule: Q01DX009 (ip), vehicle: saline): 122 % of control
- T/C [13]: 120 % of control
- T/C (dose: 25.0 mg/kg/injection, schedule: Q01DX009 (ip), vehicle: saline): 115 % of control
- T/C [14]: 115 % of control
- T/C [8]: 100 % of control

Compound: O=C(O)C1c2ccccc2Cc2ccccc21
- T/C (dose: 37.5 mg/kg/injection, schedule: Q04DX003 (ip), vehicle: Klucel (hydroxypropylcellulose) (HPC)): 122 % of control
- T/C [7]: 97 % of control
- T/C (dose: 75.0 mg/kg/injection, schedule: Q04DX003 (ip), vehicle: Klucel (hydroxypropylcellulose) (HPC)): 119 % of control
- T/C [11]: 100 % of control
- T/C (dose: 150.0 mg/kg/injection, schedule: Q04DX003 (ip), vehicle: Klucel (hydroxypropylcellulose) (HPC)): 119 % of control
- T/C [12]: 105 % of control

Compound: CC(=O)CC(C)=O.CC(=O)CC(C)=O.[Co]
- T/C [2]: 97 % of control
- T/C [4]: 102 % of control
- T/C [6]: 91 % of control

Compound: CCCCCCCCCCCCCCCCCCNC(=O)Nc1cc(C)ccc1C
- T/C (dose: 25.0 mg/kg/injection, schedule: Q01DX009 (ip), vehicle: gum acacia): 100 % of control
- T/C (dose: 50.0 mg/kg/injection, schedule: Q01DX009 (ip), vehicle: gum acacia): 93 % of control
- T/C (dose: 100.0 mg/kg/injection, schedule: Q01DX009 (ip), vehicle: gum acacia): 107 % of control

Compound: Nc1ncnc2c1ncn2C1OC(COP(=O)(O)O)C(O)C1O (stereo not given)
- T/C [13]: 124 % of control
- T/C (dose: 12.5 mg/kg/injection, schedule: Q01DX009 (ip), vehicle: water): 112 % of control
- T/C (dose: 20.0 mg/kg/injection, schedule: Q01DX009 (ip), vehicle: water): 113 % of control
- T/C (dose: 25.0 mg/kg/injection, schedule: Q01DX009 (ip), vehicle: water): 108 % of control
- T/C (dose: 40.0 mg/kg/injection, schedule: Q01DX009 (ip), vehicle: water): 110 % of control
- T/C [14]: 116 % of control
- T/C (dose: 50.0 mg/kg/injection, schedule: Q01DX009 (ip), vehicle: water): 108 % of control
- T/C (dose: 80.0 mg/kg/injection, schedule: Q01DX009 (ip), vehicle: water): 104 % of control
- T/C [8]: 121 % of control
- T/C (dose: 100.0 mg/kg/injection, schedule: Q01DX009 (ip), vehicle: water): 118 % of control
- T/C (dose: 160.0 mg/kg/injection, schedule: Q01DX009 (ip), vehicle: water): 113 % of control
- T/C (dose: 200.0 mg/kg/injection, schedule: Q01DX009 (ip), vehicle: water): 118 % of control
- T/C (dose: 320.0 mg/kg/injection, schedule: Q01DX009 (ip), vehicle: water): 124 % of control
- T/C (dose: 400.0 mg/kg/injection, schedule: Q01DX009 (ip), vehicle: water): 117 % of control

Compound: COC(=O)CC1(O)C=CC(=O)C=C1
- T/C (dose: 1.56 mg/kg/injection, schedule: Q01DX009 (ip), vehicle: Klucel (hydroxypropylcellulose) (HPC)): 95 % of control
- T/C (dose: 2.5 mg/kg/injection, schedule: Q01DX009 (ip), vehicle: saline with Tween-80): 98 % of control
- T/C (dose: 3.12 mg/kg/injection, schedule: Q01DX009 (ip), vehicle: Klucel (hydroxypropylcellulose) (HPC)): 96 % of control
- T/C (dose: 5.0 mg/kg/injection, schedule: Q01DX009 (ip), vehicle: saline with Tween-80): 102 % of control
- T/C [1]: 97 % of control
- T/C (dose: 10.0 mg/kg/injection, schedule: Q01DX009 (ip), vehicle: saline with Tween-80): 93 % of control
- T/C [3]: 94 % of control
- T/C (dose: 20.0 mg/kg/injection, schedule: Q01DX009 (ip), vehicle: saline with Tween-80): 102 % of control
- T/C [5]: 91 % of control

Compound: CC(=O)Nc1ccc(CCCCc2cccc(C(=N)N)c2)cc1
- T/C (dose: 2.3 mg/kg/injection, schedule: Q04DX003 (ip), vehicle: saline with Tween-80): 86 % of control
- T/C (dose: 4.6 mg/kg/injection, schedule: Q04DX003 (ip), vehicle: saline with Tween-80): 86 % of control
- T/C (dose: 9.3 mg/kg/injection, schedule: Q04DX003 (ip), vehicle: saline with Tween-80): 95 % of control
- T/C [4]: 97 % of control
- T/C (dose: 18.75 mg/kg/injection, schedule: Q04DX003 (ip), vehicle: saline with Tween-80): 116 % of control
- T/C [6]: 97 % of control

Compound: Nc1nc(N)c(-c2ccc(Cl)c(Cl)c2)c(CP(Cl)(Cl)(Cl)Br)n1
- T/C (dose: 6.3 mg/kg/injection, schedule: Q01DX009 (ip), vehicle: Klucel (hydroxypropylcellulose) (HPC)): 112 % of control
- T/C [3]: 111 % of control
- T/C [5]: 115 % of control
- T/C [7]: 123 % of control

Compound: Cc1ccc2nc(-c3cc(Br)ccc3O)c(-c3cc(Br)ccc3O)nc2c1
- T/C [11]: 90 % of control
- T/C [12]: 88 % of control
